# Data reported in PubChem BioAssay (NCI).
# Several values for one entry are separate records, joined by “and”; a condition that tells them apart may be missing. Equal entries are not always repeated.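 Compound exposure: 48 hours, 5 concentrations, 96-well plates. The concentration for 50% growth inhibition is given as GI50. TGI marks complete inhibition of growth.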
# What was measured:
# Test in all cases: NCI tumour cell line growth inhibition, 48 h
# A549 NSCLC = system: A549 NSCLC
# BT-549 breast = system: BT-549 breast
# CAKI-1 renal = system: CAKI-1 renal
# CCRF-CEM leukemia = system: CCRF-CEM leukemia
# COLO 205 colon = system: COLO 205 colon
# HL-60(TB) leukemia = system: HL-60(TB) leukemia
# K-562 leukemia = system: K-562 leukemia
# MDA-MB-231 breast = system: MDA-MB-231 breast
# NCI-H23 lung = system: NCI-H23 lung
# OVCAR-3 ovarian = system: OVCAR-3 ovarian
Structure (SMILES),GI50 (A549 NSCLC),TGI (A549 NSCLC),GI50 (BT-549 breast),TGI (BT-549 breast),GI50 (CAKI-1 renal),TGI (CAKI-1 renal),GI50 (CCRF-CEM leukemia),TGI (CCRF-CEM leukemia),GI50 (COLO 205 colon),TGI (COLO 205 colon),GI50 (HL-60(TB) leukemia),TGI (HL-60(TB) leukemia),GI50 (K-562 leukemia),TGI (K-562 leukemia),GI50 (MDA-MB-231 breast),TGI (MDA-MB-231 breast),GI50 (NCI-H23 lung),TGI (NCI-H23 lung),GI50 (OVCAR-3 ovarian),TGI (OVCAR-3 ovarian)
COC(=O)CCC1=C(CC(=O)OC)C(C)=N/C1=C\c1[nH]c(-c2ccc[nH]2)cc1OC,3.34 µM,13 µM,6.49 µM,21.6 µM,3.07 µM,11.6 µM,1.68 µM,29.8 µM,3.79 µM,16.3 µM,2.56 µM,14.3 µM,2.7 µM,12.5 µM,2.37 µM,11.6 µM,4.42 µM,21 µM,2.43 µM,10.2 µM
O=[N+]([O-])c1ccc(CSCc2ccc(Cl)cc2)cc1,,> 100 µM,,> 100 µM,,> 100 µM,,38.7 µM,,> 100 µM,,> 100 µM,,> 100 µM,,> 100 µM,,> 100 µM,,> 100 µM
Cc1nn(C(=O)c2ccc(Cl)cc2)c2c1C(c1ccc(O)cc1)SC(N)=N2 (configuration not stated),,> 10 µM,,> 10 µM,,> 10 µM,,> 10 µM,,> 10 µM,,> 10 µM,,> 10 µM,,> 10 µM,,> 10 µM,,> 10 µM
C=C1CC[C@@H](C(C)C)C[C@@H]2[C@H]([C@H](O)C[C@]2(C)O)[C@@]2(C)CC[C@@H]1O2,17 µM,32.7 µM,27.6 µM,55.1 µM,0.792 µM,18.7 µM,,,20 µM,34.9 µM,22.6 µM,57 µM,15.8 µM,29.2 µM,13.9 µM,28 µM,20.1 µM,42.7 µM,14.8 µM,29.5 µM
CCCCCCCCCCN1CCC(N2CCCCC2)CC1,3.74 µM,12.1 µM,3.62 µM,16.1 µM,1.66 µM,3.94 µM,2.08 µM,9.48 µM,1.3 µM,2.56 µM,1.1 µM,3.77 µM,1.28 µM,3.44 µM,1.3 µM,3.26 µM,3.35 µM,14.5 µM,4.64 µM,16.6 µM
C[C@]12CC[C@@H]3c4ccc(O)c([N+](=O)[O-])c4CC[C@H]3[C@@H]1CC[C@@H]2NS(=O)(=O)c1cccc(Br)c1,2.81 µM,8.89 µM,1.91 µM,3.93 µM,2.36 µM,5.43 µM,2.65 µM,10.4 µM,2.78 µM,7.26 µM,2.4 µM,6.04 µM,3.1 µM,10.7 µM,1.85 µM,4.14 µM,2 µM,5.06 µM,2.43 µM,5.64 µM
C/C(=N\NC(=S)N1CC2CCC(CC2)C1)c1ccccn1,0.064 µM,1.66 µM,0.135 µM,1.84 µM,0.27 µM,3.89 µM,0.0335 µM,,0.0146 µM,0.0719 µM,0.0482 µM,1.21 µM,< 0.0108 µM,2.21 µM,0.156 µM,2.45 µM,0.0179 µM,3.34 µM,< 0.0141 µM,0.29 µM
CCN(CC)CCNC(=O)c1ccc(C)c(OCc2ccccc2)c1[N+](=O)[O-],,> 100 µM,,> 50.6 µM,,> 71.1 µM,,81.4 µM,,30.8 µM,,53.3 µM,,49.2 µM,,> 100 µM,,> 100 µM,,> 75.8 µM
C[C@H]1CCC/C=C/[C@@H]2C[C@H](O)C[C@H]2[C@H](O)[C@@H](SCC(O)CO)CC(=O)O1 (some centres not stated),34.4 µM,> 100 µM,69.2 µM,> 100 µM,31.7 µM,67.6 µM,34.1 µM,> 100 µM,17.5 µM,34.4 µM,29.3 µM,94.7 µM,40.3 µM,> 100 µM,12.1 µM,28.1 µM,17.8 µM,60.5 µM,22.3 µM,63.3 µM
CCCCCCCCCCCCOC1C(C(CC(=O)NCCN2CCCC2)NS(=O)(=O)c2cc(Cl)cc(Cl)c2)OC2OC(C)(C)OC21 (configuration not stated),2.5 µM,6.41 µM,1.79 µM,3.24 µM,1.79 µM,3.4 µM,0.00586 µM,0.0349 µM,2.06 µM and 1.19 µM,4.4 µM and 2.66 µM,1.64 µM,3.76 µM,2.34 µM,4.85 µM,1.81 µM,3.23 µM,2.21 µM,4.76 µM,1.87 µM,3.72 µM
COc1ccc2c(c1)C(C)Cc1c(ncnc1-n1cnc3cc(C)ccc31)N2C (configuration not stated),0.254 µM,12.6 µM,0.184 µM,7.12 µM,0.0604 µM,12.6 µM,0.0324 µM,14.5 µM,0.176 µM,0.388 µM,0.0956 µM,0.433 µM,0.0386 µM,15.2 µM,0.229 µM,18.6 µM,0.4 µM,23.4 µM,0.151 µM,14.1 µM
O=C(Nc1ccc(Cl)c(Cl)c1)Nc1ccccc1O,6.23 µM,22.5 µM,24.9 µM,91.3 µM,3.72 µM,20.4 µM,3.35 µM,68.7 µM,5.38 µM,18.6 µM,3.7 µM,36.2 µM,3.4 µM,76.8 µM,10 µM,34.2 µM,2.98 µM,16.1 µM,3.24 µM,13.5 µM
COc1ccc(Cc2cnc(NC(=O)c3ccc4c(c3)OCCO4)s2)cc1,0.044 µM,> 100 µM,0.0357 µM,> 49.5 µM,< 0.0123 µM,15.6 µM,0.0388 µM,> 100 µM,0.0289 µM,0.319 µM,0.0409 µM,> 100 µM,0.0157 µM,> 100 µM,0.0379 µM,22.6 µM,0.0537 µM,> 100 µM,0.0221 µM,0.0658 µM
